# Reference: patent US20250325699A1, “POLYPEPTIDES AND METHODS OF USE” (Aldevron, LLC, priority 2022, published 2025)
# System: HepG2 cells
# Assay: In vitro transfection of HepG2 cells, normalized luciferase activity
# Type: cell-based
# Conditions: 48 hours
# Protocol: FIGS. 4A and 4B are graphs showing normalized luciferase activity in HepG2 cells 48 hours after in vitro transfection. Lipid nanoparticles were formed with RALA-NLS polypeptides and 250 ng or 500 ng C3-fLuc1157 DNA at a molar ratio of 700, 1400, 2100, or 2800. […]
# FIGS. 4A and 4B are graphs showing normalized luciferase activity in HepG2 cells 48 hours after in vitro transfection. Lipid nanoparticles were formed with RALA-NLS polypeptides and 250 ng or 500 ng C^3-fLuc1157 DNA at a molar ratio of 700, 1400, 2100, or 2800.
sequence,measurement,setting,value
WEARLARALARALARHLARALARALRACEAPKKKRKV [RALA-NLS],transfection efficiency in slightly cationic LNPs (20% DOTAP),FIG. 4B (20% DOTAP) versus FIG. 4A (DOPE),more pronounced
same,transfection with higher amounts of DNA (500 ng) as compared to lower amounts (250 ng),FIGS. 4A and 4B,more efficient transfection
same,transfection improvement compared to LNP without polypeptide,LNP with 700× polypeptide (molar ratio to C^3-fLuc1157 DNA),~20 fold
same,transfection improvement compared to LNP without polypeptide,LNP with 1400× polypeptide (molar ratio to C^3-fLuc1157 DNA),~35 fold
same,transfection improvement compared to LNP without polypeptide,LNP with 2100× polypeptide (molar ratio to C^3-fLuc1157 DNA),~50 fold
same,transfection improvement compared to LNP without polypeptide,LNP with 2800× polypeptide (molar ratio to C^3-fLuc1157 DNA),~65 fold
